Test results: patent US20240226026A1, “BRANCHED TAIL LIPID COMPOUNDS AND COMPOSITIONS FOR INTRACELLULAR DELIVERY OF THERAPEUTIC AGENTS” (ModernaTX, Inc., priority 2021, published 2024)

Experiments:
[1] = Particle size (diameter) and polydispersity index of lipid nanoparticles; assay type: physicochemical; conditions: nanoparticles comprising the lipid
Outline: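 Size and PDI measured by dynamic light scattering (Zetasizer Nano ZS) in 1×PBS. LNPs comprised DSPC, cholesterol, PEG lipid and ionizable lipid, some with rhodamine-DOPE.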

[2] = Encapsulation efficiency (% EE) of lipid nanoparticles; assay type: physicochemical; conditions: nanoparticles comprising the lipid
Outline: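 RNA-loaded LNPs were diluted to ~5 μg/mL in TE buffer (pH 7.5) and incubated 15 min at 37 °C with buffer or 2% Triton X-100 solution, then RiboGreen fluorescence was read (ex ~480/em ~520 nm). After blank subtraction, free RNA % = intact-sample fluorescence ÷ Triton-disrupted fluorescence.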

[3] = Lipid nanoparticle surface hydrophobicity by Generalized Polarization by Laurdan (N-GP); assay type: physicochemical; conditions: for LNP surface hydrophobicity (N-GP*): Table 2b, nanoparticles comprising the lipid
Outline: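 Laurdan, a fluorescent aminonaphthalene ketone lipid, is post-inserted into the nanoparticle surface. Its fluorescence spectrum is collected and converted to a normalized Generalized Polarization (N-GP) value as the measure of surface hydrophobicity.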

[4] = Apparent pKa of lipid nanoparticles; assay type: physicochemical; conditions: for Apparent pKa 95% CI: Table 2b, 95% confidence interval
[5] = tested on: CD-1 mice; test: Expression of hEPO induced by LNPs (mRNA encoding hEPO) administered to mice; assay type: in vivo; conditions: Table 4a, serum, 6 h after intravenous injection; for Avg. hEPO Concentration (mIU/mL)* ± Avg. SD: ELLA Simple Plex Assay
Outline: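 LNPs of DSPC, cholesterol, PEG lipid and test ionizable lipid carrying hEPO mRNA were given intravenously. Serum hEPO was measured 6 h post-injection by ELLA Simple Plex immunoassay calibrated to the 2nd IRP WHO standard.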

Row | Diameter (nm) ([1]; Table 2b) | PDI ([1]; Table 2b) | Diameter (nm) ([1]; Table 3) | PDI ([1]; Table 3) | % EE ([2]; Table 2b) | % EE ([2]; Table 3) | LNP surface hydrophobicity (N-GP*) [3] | Apparent pKa 95% CI [4] | PDI ([1]; Table 2a) | Diameter (nm) ([1]; Table 2a, DSPC, cholesterol, PEG lipid) | % EE ([2]; Table 2a) | Lipid nanoparticle surface hydrophobicity (N-GP*) ([3]; Table 2a, Laurdan, higher N-GP indicates a less polar surface) | Apparent pKa ([4]; Table 2a, nanoparticles comprising the lipid) | Compound | Avg. hEPO Concentration (mIU/mL)* ± Avg. SD [5] | Avg. hEPO Concentration (mIU/mL) ± Avg. SD [5]
1 | 163.9 nm | 0.22 | 89.3 nm | 0.154 | 26.4% | 36.1% | 0.98 | 6.865 to 6.928 |  |  |  |  |  | CCCCCC(CCCCC)CCOC(=O)CCCCCCCN(CCCCCCCC(=O)OCCC(CCCCC)CCCCC)CCCNC(=O)C1(C)CC1 [Compound 25] | 5.13E+06 ± 9.33E+04 mIU/mL | 
2 |  |  | 94.5 nm | 0.134 |  | 95.0% |  |  | 0.113 | 84.8 nm | 86.3% | 1.09 | 6.645 | CCCCCC(CCCCC)CCOC(=O)CCCCCCCN(CCCCCCCC(=O)OCCC(CCCCC)CCCCC)CCCNS(=O)(=O)CC [Compound 26] |  | 1.42E+07 ± 3.66E+05 mIU/mL
3 | 87.8 nm | 0.178 | 66.9 nm | 0.148 | 78.2% | 93.5% | 1.00 | 6.614 to 6.687 |  |  |  |  |  | CCCCCC(CCCCC)CCOC(=O)CCCCCCCN(CCCCCCCC(=O)OCCC(CCCCC)CCCCC)CCCNS(=O)(=O)Cc1ccon1 [Compound 27] | 2.12E+06 ± 7.18E+04 mIU/mL | 
4 | 84.3 nm | 0.202 | 90.3 nm | 0.161 | 99.9% | 99.5% | 0.99 | 6.545 to 6.670 |  |  |  |  |  | CCCCCC(CCCCC)CCOC(=O)CCCCCCCN(CCCCCCCC(=O)OCCC(CCCCC)CCCCC)CCCNc1ncccc1N [Compound 28] | 6.30E+05 ± 1.83E+04 mIU/mL | 
